Data: US9469878B2, “Methods of treating cancer comprising targeting NQO1” (The Board of Regents of the University of Texas System, priority 2010, dated 2016)
“And” between values parts separate entries of the source, which are not always exact repeats. Equal values may be shown once.

What was measured:
H596/NSCLC = assay: β-lapachone lethality in NQO1 genotyped cancer cells; format: cell-based, human; details: NQO1 genotype *2/*2, 2 h exposure
Experimental: (§1) LD50 responses were plotted as a function of NQO1 enzymatic levels. The notations, *1/*1 and *2/*2 represent the NQO1 status of each cell line as homozygous wild type (*1/*1) or homozygous polymorphic (*2/*2) genotypes. […] In (b), Kaplan-Meier survival curve of mice bearing orthotopic lung tumors implanted with *1/*1 A549 cells. Mice were treated intravenously (5 doses every other day) with β-lap-HPβ-CD or vehicle alone (HPβ-CD).
(§2) Cell lines, mostly from a 5-panel nonsmall cell lung cancer panel from the UT Southwestern SPORE, were assessed for NQO1 polymorphism status and then monitored for NQO1 enzyme assays using β-lapachone or the standard menadione substrates. […] NQO1*2/*2 and *3/*3 polymorphisms were detected from NQO1 *1/*1 wild-type sequences by PCR-RFLP. Genomic DNA was extracted from the cells using Qiagen spin columns. Using previously described oligonucleotide primers, PCR products underwent gel electrophoresis. Final genotyping was determined based on the size and pattern of separated bands diagnostic for *1/*1 (wild-type), or polymorphic *2/*2 or *3/*3 NQO1 polymorphisms.

H2882/NSCLC = assay: as above; format: cell-based, human
Experimental: as §1, §2

PARP-1 in PC-3 cells = assay: PAR formation (PARP-1 hyperactivation), Western blot; format: cell-based, human
Experimental: Whole-cell extracts were prepared, proteins separated by SDSPAGE, and Western blots developed using SuperSignal® West Pico Chemiluminescent substrate (Thermo Scientific, Rockford, Ill.), and exposed using Autoradiography Film (Denville Scientific Inc., Metuchen, N.J.). Both PAR (BD Pharmingen, San Jose, Calif.) and γH2AX (Upstate, Billerica, Mass.) antibodies were used at 1:2000 and 1:1000 dilutions, respectively. […] or α-tubulin levels were used as loading control.

H2009/NSCLC = assay: β-lapachone lethality in NQO1 genotyped cancer cells; format: cell-based, human
Experimental: (§3) Cell lines, mostly from a 5-panel nonsmall cell lung cancer panel from the UT Southwestern SPORE, were assessed for NQO1 polymorphism status and then monitored for NQO1 enzyme assays using β-lapachone or the standard menadione substrates. Cell line responses to β-lapachone exposures (μM, 2 h) were then assessed and lethal doses causing 50% lethality with or without dicoumarol (40 μM) co-treatments were recorded. NQO1*2/*2 and *3/*3 polymorphisms were detected from NQO1 *1/*1 wild-type sequences by PCR-RFLP. Genomic DNA was extracted from the cells using Qiagen spin columns. Using previously described oligonucleotide primers, PCR products underwent gel electrophoresis. Final genotyping was determined based on the size and pattern of separated bands diagnostic for *1/*1 (wild-type), or polymorphic *2/*2 or *3/*3 NQO1 polymorphisms.

H292 = assay: as above; format: cell-based, human
Experimental: as §3

MCF-7 = system: MCF-7; set-up: LD50 β-Lap + CAT: unit not given beside the values
Experimental: (§4) Cells were cultured and treated as described above. […] Experiments were repeated at least three times, and data expressed as relative survival (treated/control×100%) means±SEM. […] The multi-target model was used to describe the shape of relative survival curves. In this model, a final slope (D0) resulting from multiple-event killing and quasithreshold (Dq) doses were used to represent the size or width of the shoulder of the curve. The extrapolation number (n) is also a measure of the width of the shoulder. The three parameters, n, Do, and Dq were related by the expression: loge n=Dq/Do.
(§5) Cells were treated with β-lap with or without dicoumarol for 2 h. […] Data were expressed as relative survival (treated/control×100%). Experiments were repeated at least three times, and data expressed as relative survival means±SEM. […] Human mammary epithelial cells were plated in 48 well dishes in growth media containing a 50:50 mixture of MGEM/DME:F12 medium supplemented with insulin, human epidermal growth factor and hydrocortisone.

HCC1937 = system: HCC1937; set-up: LD50 β-Lap + CAT: unit not given beside the values
Experimental: as §4, §5

ZR751 = system: ZR751; set-up: LD50 β-Lap + CAT: unit not given beside the values
Experimental: as §4, §5

HTB122 = system: HTB122; set-up: LD50 β-Lap + CAT: unit not given beside the values
Experimental: as §4, §5

H2185 = system: H2185; set-up: LD50 β-Lap + CAT: unit not given beside the values
Experimental: as §4, §5

HTB24 = system: HTB24; set-up: LD50 β-Lap + CAT: unit not given beside the values
Experimental: as §4, §5

[1] = system: Human (shown) or mouse rbs; assay: Hemolysis of red blood cells; format: cell-based; details: rbs incubated with HPβCD alone, HPβCD-β-lap, or β-lap alone in DMSO
Experimental: Human (shown) or mouse rbs were incubated with HPβCD alone or HPβCD-β-lap, or β-lap alone in DMSO.

CC1(C)CCC2=C(O1)c1ccccc1C(=O)C2=O [β-Lap, 3,4-dihydro-2,2-dimethyl-2H-naphtho[1,2-b]pyran-5,6-dione]
β-Lap Lethality LD50 (H596/NSCLC): >20 µM and >10 µM | LD50 + DIC (H2882/NSCLC; *2/*2, 2 h, + dicoumarol (40 μM)): >40 µM | β-Lap Lethality LD50 (H2882/NSCLC; NQO1 genotype *2/*2, 2 h exposure): >20 µM | PAR formation after combined treatment (PARP-1 in PC-3 cells; 1 Gy+3 μM β-lap, PC-3 cells, at 60 mins, no apparent levels after each agent alone): dramatic PAR formation | Time to significant accumulation of PAR (PARP-1 in PC-3 cells; β-lap-exposed PC-3 cells, blocked by dicoumarol): 10 to 20 min | LD50 + DIC (H2009/NSCLC; *3/*3, 2 h, + dicoumarol (40 μM)): 5.4 µM | β-Lap Lethality LD50 (H2009/NSCLC; NQO1 genotype *3/*3, 2 h exposure): 4.3 µM | LD50 + DIC (H292; H292, *1/*2, 2 h, + dicoumarol (40 μM)): >10 µM | β-Lap Lethality LD50 (H292; H292, NQO1 genotype *1/*2, 2 h exposure): 1.8 µM | LD50 β-Lap + CAT (MCF-7): 4.8 | LD50 p-Lap + DIC (MCF-7; human): 9.0 | LD50 β-Lap (MCF-7; human): 1.7 | LD50 β-Lap + CAT (HCC1937): 3.4 | LD50 p-Lap + DIC (HCC1937; human): 5.0 | LD50 β-Lap (HCC1937; human): 2.2 | LD50 β-Lap + CAT (ZR751): 3.2 | LD50 p-Lap + DIC (ZR751; human): 6.8 | LD50 β-Lap (ZR751; human): 1.4 | LD50 β-Lap + CAT (HTB122): 2.8 | LD50 p-Lap + DIC (HTB122; human): 5.5 | LD50 β-Lap (HTB122; human): 1.5 | LD50 β-Lap + CAT (H2185): 2.6 | LD50 p-Lap + DIC (H2185; human): 6.4 | LD50 β-Lap (H2185; human): 1.3 | LD50 β-Lap + CAT (HTB24): 3.5 | LD50 p-Lap + DIC (HTB24; human): 6.2 | LD50 β-Lap (HTB24; human): 1.5 | Hemolysis [1]: hemolysis by HPβCD and not β-lapachone
